# Measured values reported in ChEMBL document CHEMBL1136687, “Novel 5-aryl-1,3-dihydro-indole-2-thiones. potent, orally active progesterone receptor agonists” (Bioorg Med Chem Lett, 2003).
# Assays:
# [1] = molecular target: T1, Progesterone receptor (Rattus norvegicus, UniProt Q63449); test: Inhibitory progestational activity on oral administration in uterine C3 model; format: functional, organism-based
# T1 sequence (Q63449 whole entry): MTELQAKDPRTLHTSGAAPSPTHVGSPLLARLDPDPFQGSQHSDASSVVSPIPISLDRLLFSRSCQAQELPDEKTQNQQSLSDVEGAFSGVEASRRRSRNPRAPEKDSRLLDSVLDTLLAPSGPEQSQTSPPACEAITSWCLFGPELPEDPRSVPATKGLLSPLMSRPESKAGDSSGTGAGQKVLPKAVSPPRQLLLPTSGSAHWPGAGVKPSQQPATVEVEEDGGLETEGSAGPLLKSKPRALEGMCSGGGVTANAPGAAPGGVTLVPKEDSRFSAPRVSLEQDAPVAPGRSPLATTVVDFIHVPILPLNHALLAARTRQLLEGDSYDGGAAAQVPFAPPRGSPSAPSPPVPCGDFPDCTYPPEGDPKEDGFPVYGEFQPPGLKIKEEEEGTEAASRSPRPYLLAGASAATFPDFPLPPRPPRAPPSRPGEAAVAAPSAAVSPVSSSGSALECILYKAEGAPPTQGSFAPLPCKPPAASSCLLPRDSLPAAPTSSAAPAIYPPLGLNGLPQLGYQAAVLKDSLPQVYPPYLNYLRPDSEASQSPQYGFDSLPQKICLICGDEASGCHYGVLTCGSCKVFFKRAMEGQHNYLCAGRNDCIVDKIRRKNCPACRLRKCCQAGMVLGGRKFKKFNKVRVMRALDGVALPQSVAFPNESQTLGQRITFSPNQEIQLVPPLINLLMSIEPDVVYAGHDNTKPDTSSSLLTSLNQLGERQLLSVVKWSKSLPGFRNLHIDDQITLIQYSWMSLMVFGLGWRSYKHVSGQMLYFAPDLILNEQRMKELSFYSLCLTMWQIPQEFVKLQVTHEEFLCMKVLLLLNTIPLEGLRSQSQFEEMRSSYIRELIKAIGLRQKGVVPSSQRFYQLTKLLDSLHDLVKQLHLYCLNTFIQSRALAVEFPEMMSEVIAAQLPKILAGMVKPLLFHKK
# [2] = molecular target: T2, Progesterone receptor (Rattus norvegicus) (UniProt Q63449); test: Effective progestational dose on oral administration in rat decidualization model; format: functional, organism-based
# T2 sequence (whole entry): T1 sequence (Q63449 whole entry)
# [3] = molecular target: T3, Progesterone receptor (Homo sapiens, UniProt P06401); test: (§1) Effective concentration of progesterone receptor agonist induction of alkaline phosphatase activity in human T47D breast carcinoma cells; format: functional, cell-based
# T3 sequence (P06401 whole entry): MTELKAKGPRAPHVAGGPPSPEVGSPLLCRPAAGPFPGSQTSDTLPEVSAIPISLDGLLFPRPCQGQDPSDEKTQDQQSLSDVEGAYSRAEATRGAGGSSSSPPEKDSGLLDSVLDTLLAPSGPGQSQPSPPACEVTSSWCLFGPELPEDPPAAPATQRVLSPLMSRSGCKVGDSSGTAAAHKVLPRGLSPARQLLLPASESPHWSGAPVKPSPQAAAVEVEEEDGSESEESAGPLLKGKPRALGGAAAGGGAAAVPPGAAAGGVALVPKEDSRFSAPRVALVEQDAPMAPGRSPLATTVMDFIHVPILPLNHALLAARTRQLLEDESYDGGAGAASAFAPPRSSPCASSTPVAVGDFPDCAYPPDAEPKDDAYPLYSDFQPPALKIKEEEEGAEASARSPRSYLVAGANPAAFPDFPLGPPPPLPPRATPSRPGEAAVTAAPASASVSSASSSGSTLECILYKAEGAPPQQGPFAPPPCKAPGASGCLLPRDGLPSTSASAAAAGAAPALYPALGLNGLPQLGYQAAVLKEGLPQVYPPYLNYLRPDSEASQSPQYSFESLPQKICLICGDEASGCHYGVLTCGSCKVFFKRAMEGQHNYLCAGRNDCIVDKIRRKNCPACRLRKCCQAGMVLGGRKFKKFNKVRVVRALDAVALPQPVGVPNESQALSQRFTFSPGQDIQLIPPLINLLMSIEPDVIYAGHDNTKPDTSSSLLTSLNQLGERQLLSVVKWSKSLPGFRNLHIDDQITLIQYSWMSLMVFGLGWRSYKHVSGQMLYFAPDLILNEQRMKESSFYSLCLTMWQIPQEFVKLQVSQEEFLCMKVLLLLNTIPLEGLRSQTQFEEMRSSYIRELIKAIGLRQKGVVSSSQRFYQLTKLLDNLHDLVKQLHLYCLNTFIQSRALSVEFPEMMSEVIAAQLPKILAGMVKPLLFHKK
# [4] = molecular target: T4, Androgen receptor (Mus musculus, UniProt P19091); test: Effective concentration against Androgen receptor in mouse fibroblast L929 cells
# T4 sequence (P19091 whole entry): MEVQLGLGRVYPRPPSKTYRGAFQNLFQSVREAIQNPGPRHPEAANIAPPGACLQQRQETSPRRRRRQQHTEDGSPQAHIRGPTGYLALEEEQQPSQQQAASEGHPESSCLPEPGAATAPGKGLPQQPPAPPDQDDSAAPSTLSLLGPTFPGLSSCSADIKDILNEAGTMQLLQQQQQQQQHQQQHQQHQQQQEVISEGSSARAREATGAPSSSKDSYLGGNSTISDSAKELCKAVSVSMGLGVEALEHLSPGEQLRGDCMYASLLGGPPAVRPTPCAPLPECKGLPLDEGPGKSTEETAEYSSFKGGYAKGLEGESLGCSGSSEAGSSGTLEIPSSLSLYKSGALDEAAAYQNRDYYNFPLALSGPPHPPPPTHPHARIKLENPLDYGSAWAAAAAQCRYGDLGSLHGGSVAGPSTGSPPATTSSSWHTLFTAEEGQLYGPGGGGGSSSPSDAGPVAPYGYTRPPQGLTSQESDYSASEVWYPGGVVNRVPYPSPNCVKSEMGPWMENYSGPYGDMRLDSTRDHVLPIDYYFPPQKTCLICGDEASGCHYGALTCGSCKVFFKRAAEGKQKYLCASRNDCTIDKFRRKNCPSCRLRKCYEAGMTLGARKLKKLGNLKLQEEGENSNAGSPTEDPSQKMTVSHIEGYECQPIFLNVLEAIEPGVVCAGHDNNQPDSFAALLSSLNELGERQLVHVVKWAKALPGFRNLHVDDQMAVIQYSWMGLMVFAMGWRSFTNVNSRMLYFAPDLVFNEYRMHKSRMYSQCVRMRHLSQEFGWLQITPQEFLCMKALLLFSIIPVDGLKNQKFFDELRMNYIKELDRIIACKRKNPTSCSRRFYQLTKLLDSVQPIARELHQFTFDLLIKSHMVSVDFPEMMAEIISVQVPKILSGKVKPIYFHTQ
# [5] = molecular target: T5, Glucocorticoid receptor (Homo sapiens, UniProt P04150); test: Inhibitory activity against glucocorticoid receptor in human lung A549 cells
# T5 sequence (P04150 whole entry): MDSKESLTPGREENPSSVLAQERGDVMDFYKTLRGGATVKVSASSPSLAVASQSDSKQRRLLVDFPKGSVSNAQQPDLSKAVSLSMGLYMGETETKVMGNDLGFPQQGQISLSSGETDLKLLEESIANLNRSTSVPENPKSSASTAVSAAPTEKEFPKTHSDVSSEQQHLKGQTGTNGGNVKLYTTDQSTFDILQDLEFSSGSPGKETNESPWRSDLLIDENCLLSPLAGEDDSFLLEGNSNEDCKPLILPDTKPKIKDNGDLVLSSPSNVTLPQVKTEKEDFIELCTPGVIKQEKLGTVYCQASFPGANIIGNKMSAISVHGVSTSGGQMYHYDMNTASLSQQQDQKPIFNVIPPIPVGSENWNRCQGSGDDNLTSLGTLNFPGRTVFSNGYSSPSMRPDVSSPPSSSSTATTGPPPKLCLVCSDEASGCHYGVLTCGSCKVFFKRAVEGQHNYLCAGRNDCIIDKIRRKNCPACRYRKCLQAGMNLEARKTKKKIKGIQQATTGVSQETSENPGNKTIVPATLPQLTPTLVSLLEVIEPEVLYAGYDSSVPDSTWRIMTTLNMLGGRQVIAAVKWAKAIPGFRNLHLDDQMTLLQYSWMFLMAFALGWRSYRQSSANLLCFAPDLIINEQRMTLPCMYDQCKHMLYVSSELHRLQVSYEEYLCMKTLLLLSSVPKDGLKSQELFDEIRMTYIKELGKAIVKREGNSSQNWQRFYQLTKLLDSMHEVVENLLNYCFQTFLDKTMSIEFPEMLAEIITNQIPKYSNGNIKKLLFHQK
# [6] = molecular target: T5, Glucocorticoid receptor; test: Effective concentration against glucocorticoid receptor in human lung A549 cells
# [7] = molecular target: T4, Androgen receptor; test: Inhibitory activity against Androgen receptor in mouse fibroblast L929 cells; format: cell-based
# [8] = molecular target: T3, Progesterone receptor; test: Inhibition of 3 nM [3H]R5020 binding to progesterone receptor in human T47D cells; format: functional, cell-based
# [9] = molecular target: T3, Progesterone receptor; test: as §1; format: functional, cell-based; remark: listed apart in the source
SMILES,EC50 [3] [nM],further results
N#Cc1ccc(-c2ccc3c(c2)C2(CCCCC2)C(S)=N3)s1,,IC50 [1]: 0.03 mg/kg; ED50 [2]: 0.1 mg/kg
SC1=Nc2ccc(-c3cccc(Cl)c3)cc2C12CCCCC2,,IC50 [1]: 0.37 mg/kg; ED50 [2]: > 3 mg/kg
CC(=O)O[C@]1(C(C)=O)CC[C@H]2[C@@H]3C[C@H](C)C4=CC(=O)CC[C@]4(C)[C@H]3CC[C@@]21C [MEDROXYPROGESTERONE ACETATE],,IC50 [1]: 0.026 mg/kg
S=C1Nc2ccc(-c3ccc(Cl)cc3)cc2C12CCCCC2,2000,
CC1(Cc2ccccc2)C(=S)Nc2ccc(-c3cccc(Cl)c3)cc21 (stereo not drawn),1200,
S=C1Nc2ccc(-c3cccc(Cl)c3)cc2C12CCC2,28.7,
N#Cc1cc(F)cc(-c2ccc3c(c2)C2(CCCCC2)C(S)=N3)c1,0.36,IC50 [1]: 0.025 mg/kg; ED50 [2]: 0.1 mg/kg; EC50 [4]: > 10000 nM; IC50 [5]: 35 nM; EC50 [6]: > 10000 nM; IC50 [7]: > 10000 nM; IC50 [8]: 15.9 nM
CCCc1cc(C#N)sc1-c1ccc2c(c1)C1(CCCCC1)C(S)=N2,7.7,
Cc1c(S)[nH]c2ccc(-c3cccc(Cl)c3)cc12,> 3000,
CCC1(CC)C(=S)Nc2ccc(-c3cccc(Cl)c3)cc21,200,
S=C1Nc2ccc(-c3cccc(Cl)c3)cc2C12CCCC2,9.8,
Fc1ccc(-c2ccc3c(c2)C2(CCCCC2)C(S)=N3)cc1F,5.4,
Cc1cc(C#N)sc1-c1ccc2c(c1)C1(CCCCC1)C(S)=N2,,ED50 [2]: 1 mg/kg
CCCCc1cc(C#N)sc1-c1ccc2c(c1)C1(CCCCC1)C(S)=N2,23.5,
CN1C(=S)C2(CCCCC2)c2cc(-c3cccc(Cl)c3)ccc21,> 3000,EC50 [9]: > 3000 nM
N#Cc1ccc(-c2ccc3c(c2)C2(CCCCC2)C(S)=N3)cc1F,14.8,
SC1=Nc2ccc(-c3cccc(-c4ccccc4)c3)cc2C12CCCCC2,71.4,
S=C1Nc2ccc(-c3ccccc3Cl)cc2C12CCCCC2,5.3,

# Continued by falling EC50 [3], values first:
EC50 [3] [nM],SMILES,further results
5,CC1(C)C(=S)Nc2ccc(-c3cccc(Cl)c3)cc21,
4.3,Fc1ccc(-c2ccc3c(c2)C2(CCCCC2)C(S)=N3)cc1Cl,
4.2,N#Cc1cc(-c2ccc3c(c2)C2(CCCCC2)C(=S)N3)ccc1F,
2.6,COc1cc(F)cc(-c2ccc3c(c2)C2(CCCCC2)C(=S)N3)c1,
2.5,Oc1cccc(-c2ccc3c(c2)C2(CCCCC2)C(S)=N3)c1,
2,N#Cc1cccc(-c2ccc3c(c2)C2(CCCCC2)C(=S)N3)c1,IC50 [1]: 0.3 mg/kg; ED50 [2]: 0.4 mg/kg
1.9,N#Cc1cc(-c2ccc3c(c2)C2(CCCCC2)C(=S)N3)co1,
1.9,N#Cc1ccc(-c2ccc3c(c2)C2(CCCCC2)C(S)=N3)o1,ED50 [2]: 1 mg/kg
1.6,S=C1Nc2ccc(-c3cccc(Cl)c3)cc2C12CCCCC2,
1.6,Fc1cccc(-c2ccc3c(c2)C2(CCCCC2)C(S)=N3)c1,
1.4,N#Cc1ccc(F)c(-c2ccc3c(c2)C2(CCCCC2)C(=S)N3)c1,
1.4,S=C1Nc2ccc(-c3ccc(Cl)s3)cc2C12CCCCC2,
1,N#Cc1ccc(-c2ccc3c(c2)C2(CCCCC2)C(=S)N3)s1,
0.8,Fc1cc(F)cc(-c2ccc3c(c2)C2(CCCCC2)C(=S)N3)c1,
0.5,Fc1cc(Cl)cc(-c2ccc3c(c2)C2(CCCCC2)C(=S)N3)c1,
0.5,Cc1cc(C#N)sc1-c1ccc2c(c1)C1(CCCCC1)C(=S)N2,
0.3,N#Cc1cc(-c2ccc3c(c2)C2(CCCCC2)C(=S)N3)cs1,
